According to article PMC7503225, “Repositioning Dequalinium as Potent Muscarinic Allosteric Ligand by Combining Virtual Screening Campaigns and Experimental Binding Assays” (International Journal of Molecular Sciences, 2020):

Assays:
hM4 muscarinic receptor = target: T1, hM4 muscarinic receptor (Homo sapiens, UniProt P08173); assay: Equilibrium inhibition binding with [3H]-NMS, CHO cell membranes; conditions: [3H]-NMS 0.2 nM, CHO membranes, mean ± SEM of 3-4 experiments; read-out: pKi hM4 (converted)
T1 construct: expressed in transfected cells; host or cells: CHO cells, stably transfected; membrane fractions
T1 sequence (P08173 1-479): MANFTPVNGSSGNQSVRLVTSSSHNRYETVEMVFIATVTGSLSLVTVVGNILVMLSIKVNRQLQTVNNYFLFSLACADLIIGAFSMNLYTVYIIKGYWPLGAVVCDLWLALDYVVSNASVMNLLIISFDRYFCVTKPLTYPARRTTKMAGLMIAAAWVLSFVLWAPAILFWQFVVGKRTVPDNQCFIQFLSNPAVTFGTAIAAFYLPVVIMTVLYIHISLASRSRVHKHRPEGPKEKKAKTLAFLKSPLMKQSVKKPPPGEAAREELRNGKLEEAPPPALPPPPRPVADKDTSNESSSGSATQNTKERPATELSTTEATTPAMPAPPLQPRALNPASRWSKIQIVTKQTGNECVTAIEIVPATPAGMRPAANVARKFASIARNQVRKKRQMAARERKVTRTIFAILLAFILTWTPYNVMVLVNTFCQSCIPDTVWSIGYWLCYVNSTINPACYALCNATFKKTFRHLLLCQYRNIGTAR
How it was run: (§1)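 Membranes from CHO cells stably expressing the human subtype (25–70 µg/mL) incubated with [3H]-NMS for 2 h at room temperature, filtered and counted; nonspecific binding set with 10 µM atropine. IC50 from nonlinear fits converted to Ki; 3-4 independent experiments in duplicate.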

hM5 muscarinic receptor = target: T2, hM5 muscarinic receptor (Homo sapiens, UniProt P08912); assay: as above; conditions: [3H]-NMS 0.2 nM, CHO membranes, mean ± SEM of 3-4 experiments; read-out: pKi hM5 (converted)
T2 construct: expressed in transfected cells; host or cells: CHO cells, stably transfected; membrane fractions
T2 sequence (P08912 1-532): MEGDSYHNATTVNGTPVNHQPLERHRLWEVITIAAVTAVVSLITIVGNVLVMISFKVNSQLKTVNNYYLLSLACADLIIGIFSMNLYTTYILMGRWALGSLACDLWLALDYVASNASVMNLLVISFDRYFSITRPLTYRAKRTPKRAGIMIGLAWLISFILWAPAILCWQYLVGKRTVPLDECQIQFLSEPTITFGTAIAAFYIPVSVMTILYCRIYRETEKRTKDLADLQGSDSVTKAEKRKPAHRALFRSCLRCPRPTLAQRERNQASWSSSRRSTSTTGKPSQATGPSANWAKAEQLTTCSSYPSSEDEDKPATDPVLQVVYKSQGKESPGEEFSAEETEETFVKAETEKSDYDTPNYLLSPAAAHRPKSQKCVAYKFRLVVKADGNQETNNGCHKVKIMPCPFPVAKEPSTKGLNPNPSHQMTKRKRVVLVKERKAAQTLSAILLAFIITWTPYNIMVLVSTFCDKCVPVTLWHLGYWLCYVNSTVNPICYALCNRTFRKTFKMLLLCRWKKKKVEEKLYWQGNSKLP
How it was run: as §1

[1] = target: T3, [3H]-NMS-occupied muscarinic hM5 subtype (Homo sapiens, UniProt P08912); assay: One point kinetic (off-rate) assay of [3H]-NMS dissociation; type: binding; conditions: read-out: log Kocc hM5 (converted)
T3 construct: expressed in transfected cells; host or cells: CHO cells, stably transfected; membrane fractions
T3 sequence (P08912 1-532): T2 sequence (P08912 1-532)
Description: All tested compounds were purchased from Merck KGaA (Darmstadt, Germany). The radioligand binding experiments were performed with membranes from Chinese Hamster Ovary (CHO) cells stably transfected with the five cloned human muscarinic receptor subtypes (hM1-5). Membrane fractions were prepared according to the protocol, which have been previously described; membranes were stored at −80 °C until use. Nonspecific binding was defined by the radioactivity bound in the presence of 10 µM atropine.
Off-rate assays were performed as described elsewhere to estimate the affinity of the ligands for the [^3H]-NMS-occupied receptor (log Kocc). Briefly, a high concentration of membranes (about 0.1 mg/mL) was incubated with a high concentration of [^3H]-NMS (2 nM) for 60 min at room temperature (mix membrane). Next, 100 µL aliquots were distributed into polypropylene tubes that were empty or in a final volume of 1 mL binding buffer with 1 µM atropine alone and in the presence of a range of concentrations of tested compound (1 nM–0.1 mM).
The effect on the radioligand dissociation of each tested ligand was determined at 0 min and at one time point, which was chosen to be ca 2.5 dissociation half-lives of [^3H]-NMS alone from each subtype receptors. Later (80 min for hM1, 20 min for hM2 and 70 min for hM5), the samples were filtered and counted as previously reported. Non specific binding was measured as previously reported.
Data from one-point kinetic experiments were analyzed in order to obtain estimates of the affinity of an allosteric ligand for the [^3H]-NMS occupied receptor (log Kocc) in a single step, using an equation introduced in GraphPad Prism 5.02 [33, 34].
All the results are expressed as means ± SEM obtained from 3-4 independent experiments each one performed in duplicate.

[2] = ref DrugBank [16]; cited from earlier work

Which Ki (hM4 muscarinic receptor) does the source give for `Cc1cc(N)c2ccccc2[n+]1CCCCCCCCCC[n+]1c(C)cc(N)c2ccccc21` [dequalinium] here?
Its Ki is 69.2 nM.

What about the Ki (hM5 muscarinic receptor) of the same compound?
Its Ki is 158 nM.

What about the Kd [1] of the same compound?
Its Kd is 3.31 µM.

What about the logP [2] of the same compound?
Its logP is 0.2.
